Experimental findings from ChEMBL document CHEMBL5380816, “Inclusion of Nitrofurantoin into the Realm of Cancer Chemotherapy via Biology-Oriented Synthesis and Drug Repurposing” (J Med Chem, 2023) are described below.

Assay [1] concerns MCF7. Kind of assay: Anticancer activity against human MCF7 cells assessed as smaller cells incubated at 0.098uM for 72 hrs by phase contrast inverted microscopic analysis. Format: functional, cell-based.
In assay [2] the test system is HepG2. Kind of assay: Anticancer activity against human HepG2 cells assessed as smaller cells incubated at 0.098uM for 72 hrs by phase contrast inverted microscopic analysis. Format: functional, cell-based.
Assay [3] relates to Caco-2. The experiment in a line: Induction of oxidative stress in human Caco-2 cells assessed as cell death by measuring redox alteration fluorescence incubated at 0.027 uM for 72 hrs in presence of dihydro dichlorofluorescein diacetate by DCFH-DA based flow cytometric analysis relative to control. Format: functional. (In general: A flow cytometer gives signals particle by particle.)

In assay [4] the test system is HepG2. Kind of assay: Anticancer activity against human HepG2 cells assessed as losing contact with neighbouring cells incubated at 0.098uM for 72 hrs by phase contrast inverted microscopic analysis. Format: functional, cell-based.
In assay [5] the test system is MCF7. Kind of assay: Induction of DNA damage in human MCF7 cells assessed as increase in p53 expression at 5 uM incubated for 24 hrs by Western blot analysis. Format: functional, cell-based. (In general: In western blotting, separated proteins are transferred to a membrane and probed.)
Assay [6] relates to HeLa. The experiment in a line: Anticancer activity against human HeLa cells assessed as losing contact with neighbouring cells incubated at 0.11 uM for 72 hrs by phase contrast inverted microscopic analysis. Format: functional, cell-based.
The subject of assay [7] is HeLa. The experiment in a line: Induction of apoptosis in human HeLa cells assessed as necrotic cells incubated at 0.11 uM for 72 hrs by annexin V-FITC based propidium iodide dual staining assay (reference value: 0%). Format: functional.
The test system of assay [8] is Caco-2. The experiment in a line: Induction of apoptosis in human Caco-2 cells assessed as total apoptotic cells incubated at 0.11 uM for 72 hrs by annexin V-FITC based propidium iodide dual staining assay (reference value: 0.04 +/- 0.005%). Format: functional.
For a further assay, the species on record is Homo sapiens. Kind of assay: Selectivity index, ratio IC50 for human MDA-MB-231 cells to IC50 for human MCF7 cells.
In assay [9] the test system is HeLa. Kind of assay: Anticancer activity against human HeLa cells assessed as absence of normal spindle shape incubated at 0.11 uM for 72 hrs by phase contrast inverted microscopic analysis. Format: functional, cell-based.
Assay [10] concerns HepG2. The experiment in a line: Anticancer activity against human HepG2 cells assessed as round cells incubated at 0.11 uM for 72 hrs by phase contrast inverted microscopic analysis. Format: functional, cell-based.
The subject of assay [11] is HeLa. The experiment in a line: Induction of apoptosis in human HeLa cells assessed as total apoptotic cells incubated at 0.017 uM for 72 hrs by annexin V-FITC based propidium iodide dual staining assay (reference value: 0 +/- 0.035%). Format: functional.
Assay [12] concerns HepG2. The experiment in a line: Induction of apoptosis in human HepG2 cells assessed as late apoptotic cells incubated at 0.017 uM for 72 hrs by annexin V-FITC based propidium iodide dual staining assay (reference value: 0.66%). Format: functional.
Assay [13] relates to HepG2. Kind of assay: Induction of apoptosis in human HepG2 cells assessed as necrotic cells incubated at 0.017 uM for 72 hrs by annexin V-FITC based propidium iodide dual staining assay (reference value: 0.33%). Format: functional.
For assay [14], the system named is HeLa. The experiment in a line: Induction of oxidative stress in human HeLa cells assessed as cell death by measuring redox alteration fluorescence incubated at 0.027 uM for 72 hrs in presence of dihydro dichlorofluorescein diacetate by DCFH-DA based flow cytometric analysis relative to control. Format: functional.
In assay [15] the test system is HepG2. The experiment in a line: Induction of oxidative stress in human HepG2 cells assessed as cell death by measuring redox alteration fluorescence incubated at 0.017 uM for 72 hrs in presence of dihydro dichlorofluorescein diacetate by DCFH-DA based flow cytometric analysis relative to control. Format: functional.
Assay [16] has as its system Caco-2. Kind of assay: Induction of apoptosis in human Caco-2 cells assessed as early apoptotic cells incubated at 0.017 uM for 72 hrs by annexin V-FITC based propidium iodide dual staining assay (reference value: 0.07%). Format: functional.
Assay [17] relates to HepG2. Kind of assay: Induction of apoptosis in human HepG2 cells assessed as caspase3/7 activation at 0.017 uM using caspase-glo 3/7 as substrate relative to control. Format: functional.
Assay [18] concerns MCF7. The experiment in a line: Induction of apoptosis in human MCF7 cells assessed as total apoptotic cells incubated at 0.017 uM for 72 hrs by annexin V-FITC based propidium iodide dual staining assay (reference value: 0.04 %). Format: functional.
Assay [19] concerns Caco-2. Kind of assay: Induction of apoptosis in human Caco-2 cells assessed as caspase3/7 activation at 0.097 uM using caspase-glo 3/7 as substrate relative to control. Format: functional.
Assay [20] relates to HeLa. Kind of assay: Anticancer activity against human HeLa cells assessed as losing contact with neighbouring cells incubated at 0.097uM for 72 hrs by phase contrast inverted microscopic analysis. Format: functional, cell-based.
Assay [21] concerns HepG2. The experiment in a line: Induction of apoptosis in human HepG2 cells assessed as necrotic cells incubated at 0.097 uM for 72 hrs by annexin V-FITC based propidium iodide dual staining assay (reference value: 0.33%). Format: functional.
For assay [22], the system named is Caco-2. Kind of assay: Anticancer activity against human Caco-2 cells assessed as losing contact with neighbouring cells incubated at 0.097uM for 72 hrs by phase contrast inverted microscopic analysis. Format: functional, cell-based.
The subject of assay [23] is HepG2. The experiment in a line: Anticancer activity against human HepG2 cells assessed as smaller cells incubated at 0.097uM for 72 hrs by phase contrast inverted microscopic analysis. Format: functional, cell-based.
The test system of assay [24] is MCF7. The experiment in a line: Induction of apoptosis in human MCF7 cells assessed as viable cells incubated at 0.097 uM for 72 hrs by annexin V-FITC based propidium iodide dual staining assay (reference value: 99.9%). Format: functional. The conditions noted are these: read-out: Activity.
Assay [25] concerns HeLa. Kind of assay: Anticancer activity against human HeLa cells assessed as cell shrinkage incubated at 0.097uM for 72 hrs by phase contrast inverted microscopic analysis. Format: functional, cell-based.
The subject of assay [26] is MCF7. The experiment in a line: Induction of apoptosis in human MCF7 cells assessed as necrotic cells incubated at 0.097 uM for 72 hrs by annexin V-FITC based propidium iodide dual staining assay (reference value: 0.03%). Format: functional.
Assay [27] relates to MCF7. Kind of assay: Induction of oxidative stress in human MCF7 cells assessed as cell death by measuring redox alteration fluorescence incubated at 0.11 uM for 72 hrs in presence of dihydro dichlorofluorescein diacetate by DCFH-DA based flow cytometric analysis relative to control. Format: functional.
The test system of assay [28] is Caco-2. Kind of assay: Induction of apoptosis in human Caco-2 cells assessed as increase in Bax expression level relative to control. Format: functional.
Assay [29] has as its system MCF7. Kind of assay: Induction of apoptosis in human MCF7 cells assessed as late apoptotic cells incubated at 0.097 uM for 72 hrs by annexin V-FITC based propidium iodide dual staining assay (reference value: 0.01%). Format: functional.

Activity calls are given as the source filed them. No cut-off for these calls is given here.

For `O=C(CN1C(=O)CN(/N=C/c2ccc([N+](=O)[O-])o2)C1=O)c1ccc(Cl)cc1`, the outcome in the assay on MCF7 [1], in the assay with HepG2 [2] and with HepG2 [4] was Active. Moreover, the Activity in the assay on Caco-2 [3] is recorded as 54.7%.

As to `C#CCN1C(=O)CN(/N=C/c2ccc([N+](=O)[O-])o2)C1=O`, the result with MCF7 [5], with HeLa [6], in the assay with HeLa [9] and in the assay with HepG2 [10] was Active. Also, the Activity in the assay on HeLa [7] is listed as 2.48%; with Caco-2 [8] it was 45.81%. Further, the Ratio IC50 in the assay filed under Homo sapiens worked out at 2.

As for `O=c1[nH]cc(F)c(=O)[nH]1` [FLUOROURACIL], the Activity in the assay on HeLa [11] is given as 4.29%; in the assay on HepG2 [12], 2.34%; with HepG2 [13], 1.56%; in the assay with HeLa [14] it was 4.91%; with HepG2 [15], 4.78%; with Caco-2 [16], 6.74%. For the same compound, the Activity was found to be 12% in the assay with HepG2 [17] and 2.94% in the assay with MCF7 [18].

With `NS(=O)(=O)c1ccc(-n2cc(CN3C(=O)CN(/N=C/c4ccc([N+](=O)[O-])o4)C3=O)nn2)cc1`, the Activity is 58% in the assay with Caco-2 [19]; 0% with HepG2 [21]; 0.6% in the assay on MCF7 [26]; 51.08% in the assay on MCF7 [27]; 300% in the assay with Caco-2 [28]; 60.48% in the assay with MCF7 [29]. Moreover, the outcome in the assay with HeLa [20], with Caco-2 [22], in the assay on HepG2 [23] and in the assay on HeLa [25] was Active. Also, the viability at 0.097 µM with MCF7 [24] was 31.1%.
